Active and inactive are the calls of the source. No cut-off for these calls is given here.
Legend:
[1] = system: MDA-MB-468; experiment: Induction of ROS production in human MDA-MB-468 cells measured after 2 hrs by fluorescence based assay; format: functional, cell-based
[2] = system: MDA-MB-231; experiment: Induction of ROS production in human MDA-MB-231 cells measured after 2 hrs by fluorescence based assay; format: functional, cell-based
[3] = system: MDA-MB-468; experiment: Inhibition of DNA repair activity in human MDA-MB-468 cells assessed as inhibition of NHEJ activity measured every 12 hrs for 72 hrs by luciferase based host cell reactivation assay; format: functional
[4] = system: MDA-MB-231; experiment: Inhibition of DNA repair activity in human MDA-MB-231 cells assessed as inhibition of NHEJ activity measured every 12 hrs for 72 hrs by luciferase based host cell reactivation assay; format: functional
[5] = biological target: T1, Fatty acid synthase (Homo sapiens, UniProt P49327); experiment: Inhibition of FASN in human MDA-MB-231 cells overexpressing FASN assessed as decrease in endogenous FFA level at IC50 concentration incubated for 72 hrs; format: cell-based
Target sequence in this assay (P49327 whole entry, looked up): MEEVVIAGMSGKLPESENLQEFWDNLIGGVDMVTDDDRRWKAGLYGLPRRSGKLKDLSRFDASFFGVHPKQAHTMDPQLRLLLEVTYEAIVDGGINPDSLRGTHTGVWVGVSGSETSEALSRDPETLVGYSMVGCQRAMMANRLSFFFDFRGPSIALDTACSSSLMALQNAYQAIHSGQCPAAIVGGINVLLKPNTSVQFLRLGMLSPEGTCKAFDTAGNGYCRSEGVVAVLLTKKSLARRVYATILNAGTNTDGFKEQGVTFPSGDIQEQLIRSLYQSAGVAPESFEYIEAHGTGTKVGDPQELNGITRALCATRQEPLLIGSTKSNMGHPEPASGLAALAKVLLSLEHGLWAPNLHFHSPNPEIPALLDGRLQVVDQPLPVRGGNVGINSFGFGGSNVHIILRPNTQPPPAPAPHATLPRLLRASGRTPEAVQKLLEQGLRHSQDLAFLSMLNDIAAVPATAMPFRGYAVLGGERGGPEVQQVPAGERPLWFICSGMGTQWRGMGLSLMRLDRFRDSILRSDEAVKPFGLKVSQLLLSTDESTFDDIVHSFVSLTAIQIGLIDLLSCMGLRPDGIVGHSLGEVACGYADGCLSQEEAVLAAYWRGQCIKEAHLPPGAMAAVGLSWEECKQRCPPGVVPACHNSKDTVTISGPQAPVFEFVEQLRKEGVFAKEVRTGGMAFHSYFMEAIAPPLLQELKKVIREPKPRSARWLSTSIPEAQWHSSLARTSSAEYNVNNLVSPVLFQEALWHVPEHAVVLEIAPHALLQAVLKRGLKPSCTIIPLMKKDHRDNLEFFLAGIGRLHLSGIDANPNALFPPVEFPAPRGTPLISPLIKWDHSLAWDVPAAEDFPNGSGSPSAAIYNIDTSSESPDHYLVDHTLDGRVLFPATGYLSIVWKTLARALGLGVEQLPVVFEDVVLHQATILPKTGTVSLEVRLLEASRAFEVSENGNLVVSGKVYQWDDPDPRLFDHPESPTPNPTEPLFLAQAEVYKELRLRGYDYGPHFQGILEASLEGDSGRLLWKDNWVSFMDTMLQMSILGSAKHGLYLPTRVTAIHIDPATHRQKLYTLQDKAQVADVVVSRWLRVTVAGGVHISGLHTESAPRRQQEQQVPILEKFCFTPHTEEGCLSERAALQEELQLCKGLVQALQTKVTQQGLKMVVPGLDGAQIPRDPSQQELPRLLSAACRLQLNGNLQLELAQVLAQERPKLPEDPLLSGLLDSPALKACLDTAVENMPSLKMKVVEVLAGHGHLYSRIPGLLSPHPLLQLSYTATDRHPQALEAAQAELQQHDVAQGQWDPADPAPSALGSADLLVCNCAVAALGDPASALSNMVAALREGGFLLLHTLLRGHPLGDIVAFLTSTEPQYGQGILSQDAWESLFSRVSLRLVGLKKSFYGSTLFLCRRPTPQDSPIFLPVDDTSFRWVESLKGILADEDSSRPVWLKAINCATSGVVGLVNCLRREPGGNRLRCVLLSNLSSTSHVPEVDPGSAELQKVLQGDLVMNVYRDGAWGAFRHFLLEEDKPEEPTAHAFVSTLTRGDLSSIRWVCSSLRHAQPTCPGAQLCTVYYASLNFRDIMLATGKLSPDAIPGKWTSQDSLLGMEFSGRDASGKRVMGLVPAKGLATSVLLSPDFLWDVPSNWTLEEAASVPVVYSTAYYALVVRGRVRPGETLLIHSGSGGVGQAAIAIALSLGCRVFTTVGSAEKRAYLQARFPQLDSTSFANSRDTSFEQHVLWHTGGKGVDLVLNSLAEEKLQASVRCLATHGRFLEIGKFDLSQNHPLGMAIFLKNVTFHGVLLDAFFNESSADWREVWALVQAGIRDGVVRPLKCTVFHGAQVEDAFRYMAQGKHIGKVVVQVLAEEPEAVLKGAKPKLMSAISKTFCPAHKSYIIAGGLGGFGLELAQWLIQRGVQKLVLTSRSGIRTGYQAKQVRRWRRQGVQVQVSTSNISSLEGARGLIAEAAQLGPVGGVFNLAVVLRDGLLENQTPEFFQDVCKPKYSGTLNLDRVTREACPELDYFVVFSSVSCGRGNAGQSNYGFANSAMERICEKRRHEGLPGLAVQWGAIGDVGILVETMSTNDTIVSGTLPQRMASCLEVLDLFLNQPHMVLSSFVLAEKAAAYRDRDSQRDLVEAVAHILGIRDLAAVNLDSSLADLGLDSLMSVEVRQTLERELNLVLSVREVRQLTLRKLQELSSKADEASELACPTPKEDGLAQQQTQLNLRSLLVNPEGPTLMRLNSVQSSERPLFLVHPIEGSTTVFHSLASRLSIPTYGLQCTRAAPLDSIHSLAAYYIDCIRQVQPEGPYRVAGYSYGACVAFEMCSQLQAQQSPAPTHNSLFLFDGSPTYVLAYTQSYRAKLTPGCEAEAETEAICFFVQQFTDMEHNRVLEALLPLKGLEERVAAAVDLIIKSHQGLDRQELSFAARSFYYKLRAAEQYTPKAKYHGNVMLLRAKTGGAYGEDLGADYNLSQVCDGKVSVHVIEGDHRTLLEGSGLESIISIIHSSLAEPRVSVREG

[6] = system: MDA-MB-468; experiment: Induction of DNA damage in human MDA-MB-468 cells nucleus assessed as increase in gamma-H2AX punctate staining at 20 uM by DAPI staining based confocal microscopic imaging analysis; format: functional, cell-based
[7] = system: MDA-MB-231; experiment: Induction of DNA damage in human MDA-MB-231 cells nucleus assessed as increase in gamma-H2AX punctate staining at 10 uM by DAPI staining based confocal microscopic imaging analysis; format: functional, cell-based
[8] = biological target: T1, Fatty acid synthase; experiment: Inhibition of human FASN enoyl reductase activity using crotonyl CoA as substrate assessed as inhibition of substrate […] measured every 1 min for 10 mins in the presence of NADPH by fluorescence based assay
Target sequence in this assay (P49327 whole entry): as the sequence (P49327 whole entry, looked up) above

[9] = system: MDA-MB-231; experiment: Induction of DNA damage in human MDA-MB-231 cells assessed as inhibition of PARP-1 expression incubated for 72 hrs by Western blot analysis; format: functional, cell-based; details: dose 2.5-10 µM, DDE = dose-dependent effect
[10] = system: MDA-MB-468; experiment: Induction of DNA damage in human MDA-MB-468 cells assessed as inhibition of PARP-1 expression incubated for 72 hrs by Western blot analysis; format: functional, cell-based; details: dose 2.5-10 µM, DDE = dose-dependent effect
[11] = system: MDA-MB-231; experiment: Induction of DNA damage in human MDA-MB-231 cells assessed as decrease in PARP-1 mRNA level at 2.5 to 10 uM incubated for 72 hrs by RT-PCR analysis; format: functional, cell-based; details: dose 2.5-10 µM
[12] = system: MDA-MB-468; experiment: Induction of DNA damage in human MDA-MB-468 cells assessed as decrease in PARP-1 mRNA level at 2.5 to 10 uM incubated for 72 hrs by RT-PCR analysis; format: functional, cell-based; details: dose 2.5-10 µM
[13] = system: MDA-MB-231; experiment: Induction of DNA damage in human MDA-MB-231 cells assessed as increase in gamma-H2AX level measured after 72 hrs by Western blot analysis; format: functional, cell-based; details: dose 2.5-10 µM, DDE = dose-dependent effect
[14] = system: MDA-MB-468; experiment: Induction of DNA damage in human MDA-MB-468 cells assessed as increase in gamma-H2AX level measured after 72 hrs by Western blot analysis; format: functional, cell-based; details: dose 2.5-10 µM, DDE = dose-dependent effect
[15] = Induction of DNA damage in human KTB22 cells assessed as increase in gamma-H2AX level at IC50 concentration by Western blot analysis; format: toxicity, cell-based
[16] = Induction of DNA damage in human KTB34 cells assessed as increase in gamma-H2AX level at IC50 concentration by Western blot analysis; format: toxicity, cell-based
[17] = Induction of DNA damage in human KTB39 cells assessed as increase in gamma-H2AX level at IC50 concentration by Western blot analysis; format: toxicity, cell-based
[18] = system: MDA-MB-468; experiment: Induction of apoptosis in human MDA-MB-468 cells at 20 uM incubated for 72 hrs by Annexin-V/PI staining based flow cytometric analysis; format: functional, cell-based
[19] = system: MDA-MB-468; experiment: Induction of apoptosis in human MDA-MB-468 cells assessed as increase in cleaved PARP1 level incubated for 72 hrs by Western blot analysis; format: functional, cell-based; details: dose 2.5-10 µM, DDE = dose-dependent effect
[20] = system: MDA-MB-468; experiment: Induction of apoptosis in human MDA-MB-468 cells assessed as increase in cleaved caspase 3 level incubated for 72 hrs by Western blot analysis; format: functional, cell-based; details: dose 2.5-10 µM, DDE = dose-dependent effect
[21] = system: MDA-MB-231; experiment: Induction of apoptosis in human MDA-MB-231 cells assessed as increase in cleaved PARP1 level incubated for 72 hrs by Western blot analysis; format: functional, cell-based; details: dose 2.5-10 µM, DDE = dose-dependent effect
[22] = system: MDA-MB-231; experiment: Induction of apoptosis in human MDA-MB-231 cells assessed as increase in cleaved caspase 3 level incubated for 72 hrs by Western blot analysis; format: functional, cell-based; details: dose 2.5-10 µM, DDE = dose-dependent effect
[23] = system: MDA-MB-231; experiment: Induction of apoptosis in human MDA-MB-231 cells at 10 uM incubated for 72 hrs by Annexin-V/PI staining based flow cytometric analysis; format: functional, cell-based
[24] = system: MDA-MB-231; experiment: Effect on cell cycle distribution in human MDA-MB-231 cells assessed as accumulation of cells in sub-G1 phase at 10 uM incubated for 72 hrs by PI staining based flow cytometric analysis; format: functional
[25] = system: MDA-MB-231; experiment: Antitumor activity against human MDA-MB-231 cells xenografted in NSG mouse assessed as reduction in tumor growth at 100 mg/kg, ip administered once daily for 22 days; format: functional, organism-based; details: time 22.0 day
[26] = system: MDA-MB-231; experiment: Antitumor activity against human MDA-MB-231 cells xenografted in NSG mouse assessed as reduction in tumor wet weight at 100 mg/kg, ip administered once daily for 22 days; format: functional, organism-based; details: time 22.0 day
[27] = Toxicity in NSG mouse xenografted with human MDA-MB-231 cells assessed as effect on body weight at 100 mg/kg, ip administered once daily for 22 days; format: organism-based; details: in vivo, 528 h, time 22 day
[28] = system: Mus musculus; experiment: In vivo inhibition of […] in NSG mouse xenografted with human MDA-MB-231 cells assessed as reduction of FASN level in tumor at 100 mg/kg, ip administered once daily for 22 days by Western blot analysis; format: functional, organism-based; details: time 22.0 day
[29] = system: Mus musculus; experiment: In vivo inhibition of […] in NSG mouse xenografted with human MDA-MB-231 cells assessed as reduction of FASN level in tumor at 100 mg/kg, ip administered once daily for 22 days by immunohistochemical analysis; format: functional, organism-based; details: time 22.0 day
[30] = system: Mus musculus; experiment: In vivo inhibition of […] in NSG mouse xenografted with human MDA-MB-231 cells assessed as reduction of PARP1 level in tumor at 100 mg/kg, ip administered once daily for 22 days by Western blot analysis; format: functional, organism-based; details: time 22.0 day
[31] = system: Mus musculus; experiment: In vivo inhibition of […] in NSG mouse xenografted with human MDA-MB-231 cells assessed as reduction of PARP1 level in tumor at 100 mg/kg, ip administered once daily for 22 days by immunohistochemical analysis; format: functional, organism-based; details: time 22.0 day
[32] = system: Mus musculus; experiment: In vivo inhibition of […] in NSG mouse xenografted with human MDA-MB-231 cells assessed as increase in gamma-H2AX level in tumor at 100 mg/kg, ip administered once daily for 22 days by Western blot analysis; format: functional, organism-based; details: time 22.0 day
[33] = system: Mus musculus; experiment: In vivo inhibition of […] in NSG mouse xenografted with human MDA-MB-231 cells assessed as increase in gamma-H2AX level in tumor at 100 mg/kg, ip administered once daily for 22 days by immunohistochemical analysis; format: functional, organism-based; details: time 22.0 day
[34] = system: MDA-MB-231; experiment: Antiproliferative activity against human MDA-MB-231 cells assessed as reduction in cell survival incubated for 72 hrs by methylene blue cell survival assay; format: functional, cell-based
[35] = system: MDA-MB-468; experiment: Antiproliferative activity against human MDA-MB-468 cells assessed as reduction in cell survival incubated for 72 hrs by methylene blue cell survival assay; format: functional, cell-based
[36] = system: MDA-MB-436; experiment: Antiproliferative activity against human MDA-MB-436 cells assessed as reduction in cell survival incubated for 72 hrs by methylene blue cell survival assay; format: functional, cell-based
[37] = system: HCC1937; experiment: Antiproliferative activity against human HCC1937 cells assessed as reduction in cell survival incubated for 72 hrs by methylene blue cell survival assay; format: functional, cell-based

| SMILES | inhibition [3] | inhibition [4] | inhibition [5] | Activity [6] | Activity [7] | Activity [9] | Activity [10] | Activity [11] | Activity [12] | Activity [13] | Activity [14] | Activity [15] | Activity [16] | Activity [17] | further results |
| --- | --- | --- | --- | --- | --- | --- | --- | --- | --- | --- | --- | --- | --- | --- | --- |
| CC1=CC(=O)c2ccccc2C1=O | – | – | – | – | – | – | – | – | – | – | – | – | – | – | Activity [1]: Active; Activity [2]: Active |
| Cc1c(OCC(F)(F)F)ccnc1C[S+]([O-])c1nc2ccccc2[nH]1 (stereo unspecified) [LANSOPRAZOLE] | Active | Active | Active | Active | Active | Dde | Dde | Active | Active | Dde | Dde | Toxic | Toxic | Toxic | Ki [8]: 1.7 µM |
| Cc1c(OCC(F)(F)F)ccnc1CSc1nc2ccc(O)cc2[nH]1 | Active | Active | Active | Active | Active | Dde | Dde | Active | Active | Dde | Dde | Toxic | Toxic | Toxic | Activity [18]: Active; Activity [19]: Dde; Activity [20]: Dde; Activity [21]: Dde; Activity [22]: Dde; Activity [23]: Active; Activity [24]: Active; Activity [25]: Active; Activity [26]: Active; Activity [27]: Non-Toxic; inhibition [28]: Active; inhibition [29]: Active; inhibition [30]: Active; inhibition [31]: Active; inhibition [32]: Active; inhibition [33]: Active; Activity [34]: Active; Activity [35]: Active; Activity [36]: Active; Activity [37]: Active |

Reference: ChEMBL document CHEMBL5108079, “Therapeutic Activity of the Lansoprazole Metabolite 5-Hydroxy Lansoprazole Sulfide in Triple-Negative Breast Cancer by Inhibiting the Enoyl Reductase of Fatty Acid Synthase” (J Med Chem, 2022)
